Read-outs that look alike come from different tables or passages of the source.
Experiments:
[1] = set-up: method as in AZD5069 Investigator Brochure (IB); conditions: ref AZD5069 Investigator Brochure (IB); cited from earlier work
[2] = tested on: patients with persistent uncontrolled asthma; set-up: method as in AZD5069 Investigator Brochure (IB); conditions: asthma study NCT01704495, 161 patients receiving 45 mg BD, 6-month safety analysis set; ref AZD5069 Investigator Brochure (IB); cited from earlier work
plasma protein = tested on: plasma protein; set-up: method as in AZD5069 Investigator Brochure (IB); conditions: ref AZD5069 Investigator Brochure (IB); cited from earlier work
CYP2D6 = tested on: CYP2D6; set-up: method as in AZD5069 Investigator Brochure (IB); conditions: at concentrations of up to 100 μmol/L; ref AZD5069 Investigator Brochure (IB); cited from earlier work
[3] = tested on: patients with chronic obstructive pulmonary disease (COPD); conditions: cited from earlier work
CYP2C19 = tested on: CYP2C19; set-up: method as in AZD5069 Investigator Brochure (IB); conditions: at concentrations of up to 100 μmol/L; ref AZD5069 Investigator Brochure (IB); cited from earlier work
CYP3A4 = tested on: CYP3A4; set-up: method as in AZD5069 Investigator Brochure (IB); conditions: co-administration with ketoconazole; ref AZD5069 Investigator Brochure (IB); cited from earlier work
CYP1A2 = tested on: CYP1A2; set-up: method as in AZD5069 Investigator Brochure (IB); conditions: at concentrations of up to 100 μmol/L; ref AZD5069 Investigator Brochure (IB); cited from earlier work
[4] = tested on: patients with advanced solid tumours or metastatic pancreatic ductal adenocarcinoma; conditions: ref AZD5069 IB (07 July 2019), cited from earlier work
[5] = tested on: patients with ARSI-resistant mCRPC; test: Phase 1 trial of AZD5069 plus enzalutamide: antitumour activity (RECIST v.1.1, PSA, CTC count); assay type: in vivo, human
Excerpt: Patients needed to be on treatment for at least 12 weeks to be considered a responder. Thirteen patients had assessable measurable disease by Response Evaluation Criteria in Solid Tumors v.1.1. […] All patients classed as partial responders had radiologic progression-free survival of more than 6 months. […] Three of four patients classed as partial responders, for whom pre-treatment tissue biopsy was available for androgen receptor splice variant 7 (AR-V7) immunohistochemistry (IHC) including the patient who received only abiraterone previously, had tumour expressing AR-V7 protein.
Radiologic tumour responses were measured by computerized tomography of the thorax, abdomen and pelvis, bone scan, and, where indicated, whole-body magnetic resonance imaging, at baseline, once every 3 cycles, and then at the end of treatment if this was more than 8 weeks since the last scan. PSA and CTC count were measured at baseline, and then on day 1 of every cycle, and at the end of treatment. CTC counts were analysed using previously described methods.
Secondary endpoints were:(i) the rate of objective response, with objective response defined as confirmed soft tissue objective response by Response Evaluation Criteria in Solid Tumors v.1.1 in those with measurable disease, and/or PSA decline ≥50% confirmed 4 weeks or later, and/or CTC count conversion from ≥5 per 7.5 ml of blood at baseline to <5 per 7.5 ml of blood at nadir; (ii) pharmacokinetic parameters, including maximum concentration, area under the concentration–time curve; and (iii) pharmacodynamic changes including identifying patients whose blood NLR, neutrophil, and intratumour myeloid cell density decrease. Exploratory endpoints included blood cytokine levels and evaluation of tumour molecular profile on response.
Sample size was chosen pragmatically. According to the rule-based 3 + 3 design, which guided dose-escalation decisions, the cohort size was three patients and skipping of dose levels was not allowed. Patients who completed the DLT period or experienced a DLT during the DLT period were considered part of the evaluable population. Patients who received at least one dose of study drug were considered part of the safety population. To be evaluable for response, the patient must have met the eligibility criteria, received at least three cycles of trial medication, and have had baseline assessment of disease. Comparisons of baseline characteristics between patients classed as responders and those classed as non-responders were carried out using the two-sided Mann–Whitney U-test. Comparisons of paired pharmacokinetic and pharmacodynamic parameters were carried out using the two-sided paired Wilcoxon signed-rank test. Safety variables and pharmacokinetic and pharmacodynamic endpoints were summarized descriptively.

[6] = 109 patients in two oncology studies
[7] = first partial responder at AZD5069 160 mg BD, at nadir (3–4 months)
[8] = partial responder at AZD5069 80 mg BD
[9] = partial responder at AZD5069 120 mg BD
[10] = second responder at AZD5069 160 mg BD

C[C@@H](Oc1cc(NS(=O)(=O)N2CCC2)nc(SCc2cccc(F)c2F)n1)[C@@H](O)CO [AZD5069]
phototoxic potential [1]: low risk for phototoxic potential
patients who discontinued the drug due to neutrophil counts 1x10^9/L [2]: 4
bound to plasma protein (plasma protein): > 96%
inhibition of CYP2D6 (CYP2D6): not an inhibitor
adverse events (AEs) ([3]; 50mg AZD5069, ref (18)): 33%
treatment discontinuation for decrease in neutrophils (<1.0 × 10^9/L in two blood samples, 24 hours apart) ([3]; 50mg AZD5069, ref (18)): 10%
adverse events (AEs) ([3]; 80mg AZD5069, ref (18)): 21%
treatment discontinuation for decrease in neutrophils (<1.0 × 10^9/L in two blood samples, 24 hours apart) ([3]; 80mg AZD5069, ref (18)): 4%
AEs leading to discontinuation of treatment ([3]; AZD5069 50 mg group, ref (18)): 17%
patients discontinued from the study due to decreased neutrophil count ([3]; AZD5069 50 mg group, ref (18)): 3
AEs leading to discontinuation of treatment ([3]; AZD5069 80 mg group, ref (18)): 7%
average decrease of blood neutrophil counts from baseline ([3]; AZD5069 80 mg group, ref (18)): 13-36%
patients discontinued from the study due to decreased neutrophil count ([3]; AZD5069 80 mg group, ref (18)): 1
inhibition of CYP2C19 (CYP2C19): not an inhibitor
increased exposure (AUC) (CYP3A4): 2.1 fold
increased exposure (Cmax) (CYP3A4): 1.6 fold
inhibition of CYP1A2 (CYP1A2): not an inhibitor
causally-related AEs that led to treatment discontinuation ([4]; 109 patients in two oncology studies (four patients)): 3.7%
causally-related AEs of CTCAE ≥Grade 3: fatigue [4, 6]: 4.6%
causally-related AEs of CTCAE ≥Grade 3: neutropenia [4, 6]: 11.0%
causally-related AEs of CTCAE ≥Grade 3: neutrophil count decreased [4, 6]: 4.6%
causally-related AEs: decreased appetite [4, 6]: 20.2%
causally-related AEs: diarrhoea [4, 6]: 10.1%
causally-related AEs: fatigue [4, 6]: 22.9%
causally-related AEs: nausea [4, 6]: 11.9%
causally-related AEs: neutropenia [4, 6]: 15.6%
causally-related AEs: neutrophil count decreased [4, 6]: 11.0%
causally-related SAEs [4, 6]: 9.2%
fatal AE considered treatment-related [4, 6]: no fatal AE
most common AEs: decreased appetite [4, 6]: 35.8%
most common AEs: fatigue [4, 6]: 38.5%
most common AEs: nausea [4, 6]: 28.4%
patients with adverse events considered related to study treatment [4, 6]: 73.4%
neutrophil count decreased ([4]; Study NCT02499328, 40 mg BD dose (4/64)): 6.3%
neutrophil count decreased ([4]; Study NCT02499328, 80 mg BD dose (6/25)): 24%
objective partial response rate (RECIST v.1.1 ≥30% decrease, PSA decline ≥50% and/or CTC conversion) ([5]; 21 response-evaluable patients, all dose levels, plus enzalutamide): 24%
CTC count ([5]; Patient 4 (as per Fig. 4a), C1D1): 5 CTC/7.5 ml blood
CTC count ([5]; Patient 4, C1D15): 2 CTC/7.5 ml blood
CTC count ([5]; Patient 4, C2D1): 1 CTC/7.5 ml blood
CTC count ([5]; Patient 4, C3D1): 5 CTC/7.5 ml blood
CTC count ([5]; Patient 4, C4D1): 3 CTC/7.5 ml blood
CTC count ([5]; Patient 4, C5D1): 5 CTC/7.5 ml blood
CTC count ([5]; Patient 4, C6D1): 5 CTC/7.5 ml blood
CTC count ([5]; Patient 4, C7D1): 3 CTC/7.5 ml blood
CTC count ([5]; Patient 4, C8D1): 12 CTC/7.5 ml blood
CTC count ([5]; Patient 4, C9D1): 14 CTC/7.5 ml blood
CTC count ([5]; Patient 4, C10D1): 33 CTC/7.5 ml blood
CTC count ([5]; Patient 4, C11D1): 34 CTC/7.5 ml blood
CTC count ([5]; Patient 4, C12D1): 57 CTC/7.5 ml blood
CTC count ([5]; Patient 4, C13D1): 52 CTC/7.5 ml blood
CTC count ([5]; Patient 4, C14D1): 53 CTC/7.5 ml blood
CTC count ([5]; Patient 4, C15D1): 96 CTC/7.5 ml blood
CTC count ([5]; Patient 4, C16D1): 235 CTC/7.5 ml blood
CTC count ([5]; Patient 4, C17D1): 86 CTC/7.5 ml blood
CTC count ([5]; Patient 4, C18D1): 97 CTC/7.5 ml blood
CTC count ([5]; Patient 4, Treatment Discontinuation): 119 CTC/7.5 ml blood
CTC count ([5]; Patient 10 (as per Fig. 4a), C1D1): 39 CTC/7.5 ml blood
CTC count ([5]; Patient 10, C1D15): 26 CTC/7.5 ml blood
CTC count ([5]; Patient 10, C2D1): 19 CTC/7.5 ml blood
CTC count ([5]; Patient 10, C3D1): 0 CTC/7.5 ml blood
CTC count ([5]; Patient 10, C4D1): 10 CTC/7.5 ml blood
CTC count ([5]; Patient 10, C5D1): 46 CTC/7.5 ml blood
CTC count ([5]; Patient 10, C9D1): 101 CTC/7.5 ml blood
CTC count ([5]; Patient 10, Treatment Discontinuation): 129 CTC/7.5 ml blood
radiologic progression-free survival of patients classed as partial responders ([5]; all five partial responders): more than 6 months
radiologic progression-free survival ([5]; first partial responder at AZD5069 160 mg BD): 8 months
PSA fall [5, 7]: 84%
decrease in nodal disease [5, 7]: 20%
PSA on treatment ([5]; first partial responder at AZD5069 160 mg BD, at nadir, from 344 ng ml^−1): 55 ng/mL
duration of CTC conversion [5, 8]: seven
time on trial [5, 8]: 16 months
CTC count ([5]; partial responder at AZD5069 80 mg BD, at cycle 2, baseline 9): 1 per 7.5 ml of blood
duration of radiologic and clinical responses [5, 9]: 11 months
reduction of measurable disease [5, 9]: 31%
PSA fall ([5]; partial responder at AZD5069 120 mg BD, after 5 cycles): 89%
PSA on treatment ([5]; partial responder at AZD5069 120 mg BD, after 5 cycles, from 98 ng ml^−1): 11 ng/mL
time to new bone metastases ([5]; partial responder at AZD5069 320 mg BD): 8 months
PSA reduction ([5]; partial responder at AZD5069 320 mg BD, after four cycles): 64%
PSA on treatment ([5]; partial responder at AZD5069 320 mg BD, after four cycles, from 129 ng ml^−1): 47 ng/mL
PSA change [5, 10]: no PSA decrease
radiologic progression-free survival [5, 10]: 8 months
CTC count, peak ([5]; second responder at AZD5069 160 mg BD, during cycle 1, baseline 11): 39 per 7.5 ml of blood
CTC count ([5]; second responder at AZD5069 160 mg BD, during cycle 4): 0 per 7.5 ml of blood
